Assay results reported in patent US9328083B2, “2-aminated methylene or 2-esterified methylene tanshinone derivatives, and preparation method and application thereof” (HANGZHOU BENSHENG PHARMACEUTICAL CO., LTD., priority 2011, dated 2016).
Values after ≈ are worked out from the molar mass of the structure shown.

How the values were obtained:
[1] = tested on: H9 (acute lymphoblastic leukemia, ALL); experiment: MTT growth inhibition of leukemia cells, 72 h; format: cell-based, human; settings: Homo sapiens, H9, 72 h; for IC50: read-out: IC50; for IC90: read-out: IC90
In short: (§1)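 Test compounds, dissolved in DMSO and further diluted with culture medium, go onto cells seeded the day before at 6000 per well in RPMI-1640/10% FBS. Plates stay 72 h in a 5% CO2 incubator at 37 °C, and cell viability is then assessed by the MTT method.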

[2] = tested on: Jurkat (acute lymphoblastic leukemia, ALL); experiment: MTT growth inhibition of leukemia cells, 72 h; format: cell-based, human; settings: Homo sapiens, 72 h; for IC50: read-out: IC50; for IC90: read-out: IC90
In short: as §1

[3] = tested on: K562/adr (drug-resistant, chronic myeloid leukemia, CML); experiment: MTT growth inhibition of leukemia cells, 72 h; format: cell-based, human; settings: Homo sapiens, K562/Adr; for IC50: read-out: IC50; for IC90: read-out: IC90
In short: as §1

[4] = tested on: Kasumi-1 (acute myeloid leukemia M2 type, AML-M2); experiment: MTT growth inhibition of leukemia cells, 72 h; format: cell-based, human; settings: Homo sapiens, Kasumi-1, 72 h; for IC50: read-out: IC50; for IC90: read-out: IC90
In short: as §1

[5] = tested on: NB4 (acute promyelocytic leukemia, AML); experiment: MTT growth inhibition of leukemia cells, 72 h; format: cell-based, human; settings: Homo sapiens, NB4, 72 h; for IC50: read-out: IC50; for IC90: read-out: IC90
In short: as §1

[6] = tested on: RPMI8226 (multiple myeloma); experiment: MTT growth inhibition of multiple myeloma cells, 72 h; format: cell-based, human; settings: Homo sapiens, RPMI 8226, 72 h; for IC50: read-out: IC50; for IC90: read-out: IC90
In short: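 Viability read by MTT after 72 h at 37° C, 5% CO2: compounds from a 10 mg/mL DMSO stock were diluted in medium and added at several concentrations to 6000 RPMI8226 cells per well in 1640 medium plus 10% FBS.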

A549 (human lung cancer) = experiment: MTT growth inhibition of human solid tumor cells, 72 h; format: cell-based; settings: Homo sapiens, A549, 72 h; for IC50: read-out: IC50; for IC90: read-out: IC90
In short: (§2)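 We plate 4000 cells into each well, culture them 24 h (37° C, 5% CO2, DMEM High Glucose plus 10% fetal bovine serum), add compound dilutions, mix uniformly and measure viable cell concentration.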

[7] = tested on: Becap37 (human breast cancer cell); experiment: as above; format: cell-based; settings: Homo sapiens, Becap-37, 72 h; for IC50: read-out: IC50; for IC90: read-out: IC90
In short: as §2

[8] = tested on: CNE (nasopharyngeal carcinoma cell); experiment: as above; format: cell-based; settings: Homo sapiens; for IC50: read-out: IC50; for IC90: read-out: IC90
In short: as §2

[9] = tested on: CaES-17 (esophageal cancer cell); experiment: as above; format: cell-based; settings: Homo sapiens, CaEs17, CaEs-17, 72 h; for IC50: read-out: IC50; for IC90: read-out: IC90
In short: as §2

[10] = tested on: Hela (human cervical cancer cell); experiment: as above; format: cell-based; settings: Homo sapiens, HeLa, 72 h; for IC50: read-out: IC50; for IC90: read-out: IC90
In short: as §2

[11] = tested on: Hep G2 (human liver cancer cell); experiment: as above; format: cell-based; settings: Homo sapiens, HepG2, Hep G2, 72 h; for IC50: read-out: IC50; for IC90: read-out: IC90
In short: as §2

[12] = tested on: Hep-2 (laryngeal carcinoma); experiment: as above; format: cell-based; settings: Homo sapiens, HEp-2, 72 h; for IC50: read-out: IC50; for IC90: read-out: IC90
In short: as §2

MG63 (osteosarcoma) = experiment: as above; format: cell-based; settings: Homo sapiens, MG-63, 72 h; for IC50: read-out: IC50; for IC90: read-out: IC90
In short: as §2

[13] = tested on: MGC 803 (human gastric cancer cell); experiment: as above; format: cell-based; settings: Homo sapiens, MGC-803, 72 h; for IC50: read-out: IC50; for IC90: read-out: IC90
In short: as §2

[14] = tested on: PANC-1 (pancreatic cancer); experiment: as above; format: cell-based; settings: Homo sapiens, PANC-1, 72 h; for IC50: read-out: IC50; for IC90: read-out: IC90
In short: as §2

PC-3 (prostate cancer) = experiment: as above; format: cell-based; settings: Homo sapiens, PC-3, 72 h; for IC50: read-out: IC50; for IC90: read-out: IC90
In short: as §2

[15] = tested on: RKO (human colon adenocarcinoma cell); experiment: as above; format: cell-based; settings: Homo sapiens; for IC50: read-out: IC50; for IC90: read-out: IC90
In short: as §2

[16] = tested on: SK-OV-3 (ovarian cancer cell); experiment: as above; format: cell-based; settings: Homo sapiens, SK-OV-3, 72 h; for IC50: read-out: IC50; for IC90: read-out: IC90
In short: as §2

[17] = tested on: U87 MG (malignant glioma cell); experiment: as above; format: cell-based; settings: Homo sapiens, U-87 MG, U87-MG, 72 h; for IC50: read-out: IC50; for IC90: read-out: IC90
In short: as §2

IC50 [1] | IC90 [1] | IC50 [2] | IC90 [2] | IC50 [3] | IC90 [3] | IC50 [4] | IC90 [4] | IC50 [5] | IC90 [5] | IC50 [6] | IC90 [6] | IC50 (A549 (human lung cancer)) | IC90 (A549 (human lung cancer)) | IC50 [7] | IC90 [7] | IC50 [8] | IC90 [8] | IC50 [9] | IC90 [9] | SMILES | also measured
4.11 µg/mL (≈ 10.2 µM) | 10.5 µg/mL (≈ 26.1 µM) | 1.78 µg/mL (≈ 4.42 µM) | 5.91 µg/mL (≈ 14.7 µM) | 1.5 µg/mL (≈ 3.73 µM) | 2.79 µg/mL (≈ 6.93 µM) | 0.89 µg/mL (≈ 2.21 µM) | 1.9 µg/mL (≈ 4.72 µM) | 0.94 µg/mL (≈ 2.34 µM) | 1.9 µg/mL (≈ 4.72 µM) | 3.72 µg/mL (≈ 9.24 µM) | 7.13 µg/mL (≈ 17.7 µM) | 1.65 µg/mL (≈ 4.1 µM) | 4.33 µg/mL (≈ 10.8 µM) | 3.34 µg/mL (≈ 8.3 µM) | 7.38 µg/mL (≈ 18.3 µM) | 0.45 µg/mL (≈ 1.12 µM) | 0.62 µg/mL (≈ 1.54 µM) | 0.73 µg/mL (≈ 1.81 µM) | 1.97 µg/mL (≈ 4.89 µM) | Cc1c(CN2CCCN(C)CC2)oc2c1C(=O)C(=O)c1c-2ccc2c(C)cccc12 [BS-TA-B12] | IC50 [10]: 1.46 µg/mL (≈ 3.63 µM); IC90 [10]: 3.58 µg/mL (≈ 8.89 µM); IC50 [11]: 3.8 µg/mL (≈ 9.44 µM); IC90 [11]: 7.96 µg/mL (≈ 19.8 µM); IC50 [12]: 4.01 µg/mL (≈ 9.96 µM); IC90 [12]: 9.08 µg/mL (≈ 22.6 µM); IC50 (MG63 (osteosarcoma)): 3.37 µg/mL (≈ 8.37 µM); IC90 (MG63 (osteosarcoma)): 5.49 µg/mL (≈ 13.6 µM); IC50 [13]: 2.48 µg/mL (≈ 6.16 µM); IC90 [13]: 5.05 µg/mL (≈ 12.5 µM); IC50 [14]: 1.06 µg/mL (≈ 2.63 µM); IC90 [14]: 4.16 µg/mL (≈ 10.3 µM); IC50 (PC-3 (prostate cancer)): 9.3 µg/mL (≈ 23.1 µM); IC90 (PC-3 (prostate cancer)): 11.2 µg/mL (≈ 27.8 µM); IC50 [15]: 0.7 µg/mL (≈ 1.74 µM); IC90 [15]: 5.26 µg/mL (≈ 13.1 µM); IC50 [16]: 2.53 µg/mL (≈ 6.29 µM); IC90 [16]: 3.84 µg/mL (≈ 9.54 µM); IC50 [17]: 1.16 µg/mL (≈ 2.88 µM); IC90 [17]: 3.4 µg/mL (≈ 8.45 µM)
2 µg/mL (≈ 5.13 µM) | 11.9 µg/mL (≈ 30.6 µM) | 6.66 µg/mL (≈ 17.1 µM) | > 16 µg/mL | 0.77 µg/mL (≈ 1.98 µM) | 1.82 µg/mL (≈ 4.67 µM) | 0.6 µg/mL (≈ 1.54 µM) | 1.99 µg/mL (≈ 5.11 µM) | 3.59 µg/mL (≈ 9.22 µM) | 13.7 µg/mL (≈ 35.2 µM) | 8 µg/mL (≈ 20.5 µM) | > 16 µg/mL | 1.75 µg/mL (≈ 4.49 µM) | 9 µg/mL (≈ 23.1 µM) | 4.6 µg/mL (≈ 11.8 µM) | > 16 µg/mL | > 16 µg/mL | > 16 µg/mL | > 16 µg/mL | > 16 µg/mL | Cc1c(CNCCC(C)(C)C)oc2c1C(=O)C(=O)c1c-2ccc2c(C)cccc12 [BS-TA-B14] | IC50 [10]: 5.28 µg/mL (≈ 13.6 µM); IC90 [10]: 84.2 µg/mL (≈ 216 µM); IC50 [11]: 16 µg/mL (≈ 41.1 µM); IC90 [11]: > 16 µg/mL; IC50 [12]: 14.3 µg/mL (≈ 36.7 µM); IC90 [12]: 35.2 µg/mL (≈ 90.5 µM); IC50 (MG63 (osteosarcoma)): 4.86 µg/mL (≈ 12.5 µM); IC90 (MG63 (osteosarcoma)): > 16 µg/mL; IC50 [13]: 14.4 µg/mL (≈ 37 µM); IC90 [13]: > 16 µg/mL; IC50 [14]: 1.88 µg/mL (≈ 4.83 µM); IC90 [14]: 6.19 µg/mL (≈ 15.9 µM); IC50 (PC-3 (prostate cancer)): 14.7 µg/mL (≈ 37.6 µM); IC90 (PC-3 (prostate cancer)): > 16 µg/mL; IC50 [15]: 3.36 µg/mL (≈ 8.63 µM); IC90 [15]: > 16 µg/mL; IC50 [16]: > 16 µg/mL; IC90 [16]: > 16 µg/mL; IC50 [17]: 3.85 µg/mL (≈ 9.88 µM); IC90 [17]: > 16 µg/mL
